Test: xn = mol fraction of the nth substance listed
Conditions: 100 kPa, Liquid; for mass density: Vibrating tube method; for viscosity: Falling or rolling sphere viscometry; for speed of sound: Frequency=3 MHz, Sing-around technique in a fixed-path interferometer

CCOS(=O)(=O)[O-].CCn1cc[n+](C)c1 [1-ethyl-3-methylimidazolium ethyl sulfate] + CCCCO
Conditions | mass density [kg/m3] | speed of sound [m/s] | viscosity [mPa·s]
289.15 K, x1 = 0.1071 | 894.433 | – | –
289.15 K, x1 = 0.1982 | 955.118 | – | –
289.15 K, x1 = 0.3069 | 1015.6 | – | –
289.15 K, x1 = 0.3985 | 1058.77 | – | –
289.15 K, x1 = 0.5048 | 1101.82 | – | –
289.15 K, x1 = 0.603 | 1136.02 | – | –
289.15 K, x1 = 0.7158 | 1169.99 | – | –
289.15 K, x1 = 0.7951 | 1191.1 | – | –
289.15 K, x1 = 0.9185 | 1219.88 | – | –
289.15 K, x1 = 1 | 1236.33 | – | –
298.15 K, x1 = 0.1071 | – | 1289.1 | 4.24
298.15 K, x1 = 0.1982 | – | 1334.4 | 7.8
298.15 K, x1 = 0.3069 | – | 1385.6 | 10.83
298.15 K, x1 = 0.3985 | – | 1430.2 | 14.09
298.15 K, x1 = 0.5048 | – | 1480.4 | 19.44
298.15 K, x1 = 0.603 | – | 1523.6 | 26.62
298.15 K, x1 = 0.7158 | – | 1571.7 | 38.4
298.15 K, x1 = 0.7951 | – | 1603.7 | 49.51
298.15 K, x1 = 0.9185 | – | 1649.7 | 72.34
298.15 K, x1 = 1 | – | 1682.3 | 96.21
303.15 K, x1 = 0.1071 | 890.751 | 1273.7 | 3.75
303.15 K, x1 = 0.1982 | 951.498 | 1319.9 | 6.51
303.15 K, x1 = 0.3069 | 1012.01 | 1372 | 9.15
303.15 K, x1 = 0.3985 | 1055.33 | 1417 | 11.98
303.15 K, x1 = 0.5048 | 1098.4 | 1467.3 | 16.51
303.15 K, x1 = 0.603 | 1132.65 | 1510.8 | 22.37
303.15 K, x1 = 0.7158 | 1166.67 | 1559.1 | 31.74
303.15 K, x1 = 0.7951 | 1187.78 | 1591.2 | 40.39
303.15 K, x1 = 0.9185 | 1216.56 | 1637.3 | 57.89
303.15 K, x1 = 1 | 1232.93 | 1670 | 75.89
308.15 K, x1 = 0.1071 | 887.005 | 1258.4 | 3.34
308.15 K, x1 = 0.1982 | 947.88 | 1305.4 | 5.54
308.15 K, x1 = 0.3069 | 1008.14 | 1358.2 | 7.92
308.15 K, x1 = 0.3985 | 1051.76 | 1403.8 | 10.46
308.15 K, x1 = 0.5048 | 1094.94 | 1454.7 | 14.4
308.15 K, x1 = 0.603 | 1129.23 | 1498.4 | 19.31
308.15 K, x1 = 0.7158 | 1163.39 | 1546.8 | 26.88
308.15 K, x1 = 0.7951 | 1184.46 | 1578.9 | 33.7
308.15 K, x1 = 0.9185 | 1213.19 | 1625.2 | 47.2
308.15 K, x1 = 1 | 1229.57 | 1657.9 | 60.73
313.15 K, x1 = 0.1071 | 883.165 | 1243.2 | 2.99
313.15 K, x1 = 0.1982 | 944.157 | 1290.7 | 4.82
313.15 K, x1 = 0.3069 | 1004.86 | 1344.1 | 6.95
313.15 K, x1 = 0.3985 | 1048.25 | 1390.4 | 9.21
313.15 K, x1 = 0.5048 | 1091.49 | 1441.8 | 12.62
313.15 K, x1 = 0.603 | 1125.39 | 1485.8 | 16.74
313.15 K, x1 = 0.7158 | 1160.05 | 1534.5 | 22.92
313.15 K, x1 = 0.7951 | 1181.13 | 1566.7 | 28.36
313.15 K, x1 = 0.9185 | 1209.91 | 1613.1 | 38.93
313.15 K, x1 = 1 | 1226.21 | 1645.9 | 49.38
318.15 K, x1 = 0.1071 | 879.331 | 1228 | 2.69
318.15 K, x1 = 0.1982 | 940.543 | 1276.5 | 4.25
318.15 K, x1 = 0.3069 | 1001.31 | 1330.5 | 6.16
318.15 K, x1 = 0.3985 | 1044.72 | 1377.6 | 8.16
318.15 K, x1 = 0.5048 | 1088.01 | 1429.8 | 11.12
318.15 K, x1 = 0.603 | 1122.45 | 1473.7 | 14.62
318.15 K, x1 = 0.7158 | 1156.71 | 1522.6 | 19.75
318.15 K, x1 = 0.7951 | 1177.81 | 1554.8 | 24.19
318.15 K, x1 = 0.9185 | 1206.65 | 1601.2 | 32.66
318.15 K, x1 = 1 | 1222.87 | 1634.1 | 40.93
323.15 K, x1 = 0.1071 | 875.482 | 1213 | 2.43
323.15 K, x1 = 0.1982 | 936.794 | 1262.2 | 3.69
323.15 K, x1 = 0.3069 | 997.633 | 1317 | 5.43
323.15 K, x1 = 0.3985 | 1041.07 | 1364.8 | 7.28
323.15 K, x1 = 0.5048 | 1084.47 | 1417.4 | 9.93
323.15 K, x1 = 0.603 | 1118.96 | 1461.5 | 12.97
323.15 K, x1 = 0.7158 | 1153.24 | 1510.6 | 17.27
323.15 K, x1 = 0.7951 | 1174.37 | 1543 | 20.87
323.15 K, x1 = 0.9185 | 1203.18 | 1589.4 | 27.56
323.15 K, x1 = 1 | 1219.54 | 1622.3 | 33.82

Source: the NIST ThermoML archive (doi:10.1016/j.fluid.2017.01.019)
